In PubChem BioAssay (NCI):
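A five-concentration, 48-hour dose response in 96-well plates underlies each endpoint, interpolated linearly between surrounding concentrations. Abbreviation: GI50, concentration required for 50% inhibition of growth. TGI: total growth inhibition.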

Columns and labels:
Assay in all cases: NCI anticancer screen, dose series, 48 h
[1] = test system: 786-0 renal
[2] = test system: HCC-2998 colon
[3] = test system: SK-OV-3 ovarian
[4] = test system: CAKI-1 renal
[5] = test system: SNB-75 CNS
[6] = test system: CCRF-CEM leukemia
[7] = test system: HOP-92 NSCLC
[8] = test system: MDA-MB-231 breast
[9] = test system: PC-3 prostate
[10] = test system: HS 578T breast

Row | SMILES | TGI [1] | TGI [2] | TGI [3] | TGI [4] | TGI [5] | TGI [6] | TGI [7] | GI50 [1] | GI50 [8] | TGI [8] | GI50 [2] | GI50 [9] | TGI [9] | GI50 [3] | GI50 [4] | GI50 [10] | TGI [10] | GI50 [5] | GI50 [6] | GI50 [7]
1 | O=c1c2cc3c(cc2c2cccc4c2n1CCC4)OCO3 | > 100 µM | > 100 µM | > 100 µM | > 100 µM | > 100 µM | > 100 µM | > 100 µM | – | – | – | – | – | – | – | – | – | – | – | – | –
2 | COc1ccc(NC(=O)CC(=O)n2nc(C)c(N=Nc3ccccc3C(=O)O)c2C)cc1 | > 100 µM | > 100 µM | 94.2 µM | > 100 µM | 78.8 µM | > 100 µM | – | – | – | – | – | – | – | – | – | – | – | – | – | –
3 | Cn1cc(C(=O)c2ccccc2)cc(C(=O)c2ccccc2)c1=O | > 100 µM | > 100 µM | > 100 µM | > 100 µM | > 100 µM | > 100 µM | > 100 µM | – | – | – | – | – | – | – | – | – | – | – | – | –
4 | COc1cccc(SSc2cccc(OC)c2C(=O)O)c1C(=O)O | > 100 µM | – | > 100 µM | > 100 µM | > 100 µM | > 100 µM | > 100 µM | – | – | – | – | – | – | – | – | – | – | – | – | –
5 | COc1cc2ccnc3c(=C(SC)SC)c(=O)c(c1OC)c23 | 23.1 µM | 32.6 µM | > 100 µM | 23.4 µM | 21.8 µM | 17 µM | 21.2 µM | – | – | – | – | – | – | – | – | – | – | – | – | –
6 | COc1cc(Cl)cc(-c2nn(-c3cccc(NC(=O)Nc4ccc(Cl)c(Cl)c4)c3)cc2-c2ccncc2)c1 | 7.84 µM | 36.8 µM | 87 µM | 16.7 µM | 48.6 µM | 6 µM | – | 2.31 µM | 1.87 µM | 4.52 µM | 3.16 µM | 1.13 µM | 5.28 µM | 3.6 µM | 2.38 µM | 3.89 µM | > 100 µM | 2.11 µM | 2 µM | –
7 | Cc1nc2ccccc2nc1N=Nc1ccccc1 | > 100 µM | > 100 µM | > 100 µM | – | > 100 µM | > 100 µM | 43.9 µM | 26.9 µM | 16.2 µM | 69.1 µM | 37 µM | 6.57 µM | 60.2 µM | 34.9 µM | – | – | – | 18.3 µM | 25 µM | 3.03 µM
8 | CC(=O)c1ccc(NC(=O)COC(=O)c2cccc3c(=O)c4ccccc4[nH]c23)cc1 | > 100 µM | > 100 µM | > 100 µM | > 100 µM | 31.5 µM | > 100 µM | > 100 µM | – | – | – | – | – | – | – | – | – | – | – | – | –
9 | O=C1OC(=O)C2C3C=CC(C12)C1C2C=CC2C31 (centres undefined) | > 100 µM | > 100 µM | > 100 µM | > 100 µM | – | > 100 µM | > 100 µM | – | – | – | – | – | – | – | – | – | – | – | – | –
10 | COc1ccc(-c2csc(NC(=O)CN3CCN(c4cc5c(cc4F)c(=O)c(C(=O)O)cn5C4CC4)CC3)n2)cc1 | 31.1 µM | > 100 µM | 8.32 µM | > 100 µM | 34.2 µM | > 100 µM | 7.17 µM | 3.6 µM | – | – | 4.8 µM | 3.82 µM | > 100 µM | 2.86 µM | 3.57 µM | 9.82 µM | > 100 µM | 3.31 µM | 3.59 µM | 2.82 µM
11 | O=c1cccc(-c2cccc(=O)[nH]2)[nH]1 | > 100 µM | > 100 µM | > 100 µM | > 100 µM | > 100 µM | > 100 µM | 96.5 µM | – | – | – | – | – | – | – | – | – | – | – | – | –
12 | Cl.Fc1c[c-]c(-c2ccccn2)c(F)c1.[Pt].c1ccc([PH+](C[PH+](c2ccccc2)c2ccccc2)c2ccccc2)cc1 | 0.468 µM | – | 0.84 µM | 0.839 µM | 0.781 µM | – | 0.48 µM | 0.211 µM | – | – | – | 0.276 µM | 1.14 µM | 0.293 µM | 0.266 µM | 0.312 µM | 1.56 µM | 0.183 µM | – | 0.155 µM
13 | Cc1nc2cc(Nc3nc(Nc4ccc(F)cc4)nc(N4CCOCC4)n3)ccc2n1Cc1ccccc1 | 3.33 µM | – | 25.1 µM | 18.5 µM | 20.4 µM | 8.2 µM | – | 1.69 µM | 3.36 µM | 14.7 µM | – | 2.91 µM | 16.8 µM | 10.5 µM | 3.89 µM | 3.84 µM | 58.5 µM | 2.73 µM | 2.75 µM | –
14 | CC(=O)OC1=CC2(OC(C)=O)CC(C)(C)C1C1C(=O)C=CC(=O)C12 (centres undefined) | > 81.7 µM | > 100 µM | > 100 µM | > 100 µM | > 100 µM | > 100 µM | > 100 µM | – | – | > 100 µM | – | – | > 100 µM | – | – | – | – | – | – | –
15 | Cc1ccc(S(=O)(=O)N/N=C/C(C)C)cc1 | > 100 µM | > 100 µM | > 100 µM | > 100 µM | > 100 µM | > 100 µM | > 100 µM | – | – | – | – | – | – | – | – | – | – | – | – | –
16 | O=C1c2cccnc2C(=O)c2c1c(C(=O)OCCCN1CCCCC1)c1ccccn21 | < 0.01 µM | – | < 0.0199 µM | 0.105 µM | < 0.0187 µM | – | 0.913 µM | < 0.01 µM | 0.717 µM | 13.9 µM | – | < 0.0183 µM | 0.389 µM | < 0.01 µM | < 0.01 µM | < 0.0178 µM | 0.132 µM | < 0.01 µM | 0.0706 µM | 0.0512 µM
17 | N#CC1=C(O)NC(O)=C(C#N)C1c1ccc(C2C(C#N)=C(O)NC(O)=C2C#N)cc1 | > 100 µM | > 100 µM | > 100 µM | > 100 µM | > 100 µM | > 100 µM | – | – | – | – | – | – | – | – | – | – | – | – | – | –
18 | OCCN(CCO)c1cccc(N(CCO)CCO)n1 | > 100 µM | – | > 100 µM | > 100 µM | > 100 µM | > 100 µM | > 100 µM | – | – | – | – | – | – | – | – | – | – | – | – | –
19 | Cc1ccc(NC(=O)CCc2n[nH]c(=S)o2)cc1 | > 100 µM | > 100 µM | – | > 100 µM | > 100 µM | > 100 µM | > 100 µM | – | – | – | – | – | – | – | – | – | – | – | – | –
20 | O=Cc1ccc(-c2ccc(-c3nc4ccccc4s3)cc2)s1 | > 100 µM | > 100 µM | > 100 µM | > 100 µM | > 100 µM | 90.7 µM | – | 51.7 µM | 17.6 µM | 78.2 µM | > 100 µM | 28.7 µM | > 100 µM | > 100 µM | 48.2 µM | – | – | > 100 µM | 26.5 µM | –
21 | Cc1c2c(c(C)c3c1[nH]c1ccccc13)CN(C)CC2 | 29.6 µM | 31.2 µM | 70.1 µM | 27.4 µM | 28.8 µM | > 100 µM | 57.5 µM | – | – | – | – | – | – | – | – | – | – | – | – | –
